Data set [1] relates to Oral fibroblasts obtained from human gingival (HGF) tissues. Briefly: MTS cell viability assay of HGF cells pre-treated with Zn, Cu and Ni, then AO mixtures. As to the method: (§1) In dentistry, the use of metals in fillings, braces, bridges and other prosthodontic restorations may form free radicals. […] A study was conducted to determine if oral fibroblasts are susceptible to damage from these agents which elevate reaction oxygen species (ROS). In this study, specific antioxidant (AO) combinations were investigated that counteract the effects of Zn, Cu and Ni on cultured oral fibroblast proliferation and oxidative damage. Oral fibroblasts obtained from human gingival (HGF) tissues were seeded into 96-well plates. After achieving 70% confluence, the cells were pre-treated with Zn, Cu and Ni for 30 and 60 minutes. Thereafter, cells were exposed to 10^-5M of the bioactive AO mixtures; resveratrol (R), ferulic acid (F) phloretin (P) and tetrahydrocurcuminoids (T); (RFT, PFR, PFT) for 24 hours. Cell viability was monitored by MTS assay. The fluorescence response of dichlorodihydrofluorescein diacetate to various ROS was measured.
(§2) A study was conducted to determine if oral fibroblasts are susceptible to damage from these agents by decreasing cell viability and whether specific antioxidants (AO) in combinations can counteract these effects. Oral fibroblasts obtained from human gingival (HGF) tissues were seeded into 96-well plates. After achieving 70% confluence, the cells were pre-treated with Zn, Cu and Ni for 30 and 60 minutes. Thereafter, cells were exposed to 10^-5M of the bioactive AO mixtures at single, double and triple combinations; resveratrol (R), ferulic acid (F), phloretin (P), and tetrahydrocurcuminoids (T) for 24 hours. Cell viability was monitored by MTS assay.

Data set [2] concerns fibroblasts from human gingival (HGF) and human periodontal ligament (HPDF) cells. As to the method: A study was done to determine the antioxidant effect on fibroblasts from human gingival (HGF) and human periodontal ligament (HPDF) cells exposed to increasing concentration of cytotoxic metals. HGF and HPDF cells were extracted and seeded with 10% fetal bovine serum (FBS). Both the HGF and HPDF cells were then exposed to one of 3×10^−4M or 2×10^−4M ZnCl2, 2×10^−3M or 1×10^−3M NiCl2, 5×10^−4M or 4×10^−4M CuCl2. Next, the samples were treated with bioactive antioxidant (AO) mixtures at single, double, and triple combinations; resveratrol (R), ferulic acid (F), phloretin (P), and tetrahydrocurcuminoids (T). Both the HGF and HPDF cells were then monitored by MTS, ROS, and BrdU assays.

Data set [3] deals with Oral fibroblasts obtained from human gingival (HGF) tissues. The protocol:
as §1, §2

The subject of another data set is CCL5. Briefly: CCL5 production by LPS-stimulated PBMCs (multiplex). Type of data set: cell-based, human. As to conditions: 1×10^−4M anti-oxidant 2 hrs, then LPS 18 hrs. From the text:
(§3) Cell Culture—PBMCs were isolated from buffy coats derived from healthy donors (Sylvan N. Goldman Oklahoma Blood Institute, Oklahoma City, Okla., USA) by density gradient centrifugation (Ficoll-Paque plus; GE Healthcare, Piscataway, N.J., USA). Oleuropein (purity=80.17%) was purchased from Sabinsa Corporation (Payson, Utah, USA). Silymarin (purity≥95%), ferulic acid (purity≥98%), hesperetin (purity≥95%), resveratrol (purity≥99%), and phloretin (purity≥99%) were purchased from Sigma-Aldrich (St Louis, Mo., USA). Dimethyl sulfoxide (DMSO) (purity=99.90%) was purchased from EMD Millipore (Billerica, Mass., USA). […]
(§4) PBMCs were seeded at either 4×10^5 or 1.2×10^6 cells in 96- or 48-well tissue culture plates (BD Biosciences, Franklin Lakes, N.J., USA) respectively. […] After 2 hrs the absorbance at 490 nm was recorded using a 96-well plate reader.
(§5) Human Cytokine Fluorokine MAP kit was purchased from R & D Systems (Minneapolis, Minn., USA). Readouts included TNF-α, IL-1α, IL-1β, IL-1Ra, IL-2, IL-4, IL-5, IL-6, IL-8, IL-10, IL-17, macrophage inflammatory protein (MIP)-1α (MIP-1α), MIP-1β, interferon-γ (IFN-γ), granulocyte-colony stimulating factor (G-CSF), granulocyte macrophage-colony stimulating factor (GM-CSF), macrophage chemotactic protein (MCP-1), CCL5, CXCL5, vascular endothelial growth factor (VEGF), thrombopoietin (TPO) and fibroblast growth factor basic (FGFb). […]

A further data set concerns TNF-α mRNA. Briefly: RT-PCR of TNF-α mRNA in LPS-stimulated PBMCs. Format: cell-based, human. As to conditions: harvested after 4 hrs, 2-ΔΔCt, GAPDH control. The protocol:
(§6) RT-PCR Assays—Total RNA was extracted from homogenized cells using the miRNeasy kit (Qiagen, Valencia, Calif., USA) according to the manufacturer's protocol. Total RNA quantified on Nanodrop (ThermoScientific, Rockford, Ill., USA) was used for first strand cDNA synthesis using the SS RTIII kit (Life Technologies, Carlsbad, Calif., USA). Real-time PCR was performed using EvaGreen 2× master mix (Biotium, Hayward, Calif., USA), 10 pmol forward and reverse gene specific primers and 1 ul of 1:10 diluted cDNA. GAPDH was used as endogenous control. The fold change was calculated using 2-ΔΔCt method and the control was set at 1. Custom primers were purchased from Sigma-Aldrich (St Louis, Mo., USA). Primer sequences for TNF-α were: Forward, […], Reverse: […]. Primer sequences for IκB-α were: Forward, […], Reverse: […]. Data Analysis—Statistics were performed using two-tailed t-test or one-way analysis of variance (ANOVA). Statistical significance is indicated by an asterisk *, where p≤0.05. Error bars on all graphs indicate standard error of mean (SEM) or standard deviation (SD).
(§7) Inhibition of TNF-α is present at the level of mRNA transcription—Whether the reduced production of inflammatory mediators was due to decreased mRNA transcription was investigated. […] After 4 hrs the cells were harvested, total RNA isolated and RT-PCR performed to measure the levels of TNF-α mRNA present. […]

A further data set deals with TNF-α. Briefly: TNF-α production by Aa Y4 LPS-stimulated PBMCs (ELISA). Type of data set: cell-based, human. As to conditions: PBMCs pre-treated 2 hrs with 1×10^−4M anti-oxidant, then LPS 18 hrs. From the text: (§8) Cell Culture—PBMCs were isolated from buffy coats derived from healthy donors (Sylvan N. Goldman Oklahoma Blood Institute, Oklahoma City, Okla., USA) by density gradient centrifugation (Ficoll-Paque plus; GE Healthcare, Piscataway, N.J., USA). Oleuropein (purity=80.17%) was purchased from Sabinsa Corporation (Payson, Utah, USA). Silymarin (purity≥95%), ferulic acid (purity≥98%), hesperetin (purity≥95%), resveratrol (purity≥99%), and phloretin (purity≥99%) were purchased from Sigma-Aldrich (St Louis, Mo., USA). Dimethyl sulfoxide (DMSO) (purity=99.90%) was purchased from EMD Millipore (Billerica, Mass., USA). Oleuropein, silymarin, ferulic acid, hesperetin, resveratrol and phloretin were provided as 0.1M stock solutions prepared in DMSO by Periosciences Ltd (Dallas, Tex., USA).
PBMCs were seeded at either 4×10^5 or 1.2×10^6 cells in 96- or 48-well tissue culture plates (BD Biosciences, Franklin Lakes, N.J., USA) respectively. PBMCs were pre-treated with single antioxidants at a concentration of 1×10^−4 M or combinations of antioxidants with a combined concentration of 1×10^−4 M for 2 hrs prior to stimulation. […] S.C.) at a concentration of 1 μg/ml in the presence of antioxidants. Media were collected, spun at 1600 RPM and cell-free supernatants transferred to fresh tubes and stored at −20 C. Cell viability was assayed using CellTiter 96® AQueous One Solution Reagent (Promega, Madison, Wis., USA) following the manufacturers guidelines. 20 μl of the reagent was added to each well and incubated for 2 hrs under culture conditions. After 2 hrs the absorbance at 490 nm was recorded using a 96-well plate reader.
ELISA and Multiplex Assays—Human tumour necrosis factor-alpha (TNF-α) capture and detection Abs were purchased from Life Technologies (Carlsbad, Calif., USA) and used for the development of a TNF-α sandwich ELISA according to the manufacturer's instructions. Cell culture supernatants were analyzed using a 96-well plate reader with absorbance at 450 nm (reference 650 nm).
Stimulation of PBMCs with Aa Y4 LPS—To establish the optimal concentrations of anti-oxidants and LPS for this study, dose and kinetic experiments were performed. The doses examined were: 1×10^−4, 1×10^−5 and 1×10^−6M while the challenge concentrations of Aa Y4 LPS were 1, 10, 100 or 1000 ng/ml. Whole blood was stimulated with several concentrations of E. coli or Aa Y4 LPS and TNF-α production quantified by ELISA over 3 time-points: 16, 24 and 48 hrs.
In general terms: In an ELISA, binding on a coated surface is turned into a signal by an enzyme label.

The test system of the next data set is IL-1β. Briefly: IL-1β production by LPS-stimulated PBMCs (multiplex, FIG. 9D). Type of data set: cell-based, human. As to conditions: 1×10^−4M anti-oxidant 2 hrs, then LPS 18 hrs.
Description: as §3, §4, §5

Another data set concerns IL-6. Briefly: IL-6 production by LPS-stimulated PBMCs (multiplex). Format: cell-based, human. As to conditions: 1×10^−4M anti-oxidant 2 hrs, then LPS 18 hrs.
Description: as §8
(§9) PBMCs were seeded at either 4×10^5 or 1.2×10^6 cells in 96- or 48-well tissue culture plates (BD Biosciences, Franklin Lakes, N.J., USA) respectively. PBMCs were pre-treated with single antioxidants at a concentration of 1×10^−4 M or combinations of antioxidants with a combined concentration of 1×10^−4 M for 2 hrs prior to stimulation. PBMCs were then stimulated for 16 hrs with purified LPS isolated from the bacterium Actinobacillus actinomycetemcomitans, strain Y4 (Aa Y4); a kind gift of Dr Kirkwood, Univ. S.C.) at a concentration of 1 μg/ml in the presence of antioxidants. Media were collected, spun at 1600 RPM and cell-free supernatants transferred to fresh tubes and stored at −20 C. […] After 2 hrs the absorbance at 490 nm was recorded using a 96-well plate reader.
as §5

The next data set relates to IFN-γ. Briefly: IFN-γ production by LPS-stimulated PBMCs (multiplex). As to conditions: 1×10^−4M anti-oxidant 2 hrs, then LPS 18 hrs. Format: cell-based, human.
Description: as §8, §9, §5

The test system of a further data set is G-CSF. Briefly: G-CSF production by LPS-stimulated PBMCs (multiplex). As to conditions: 1×10^−4M anti-oxidant 2 hrs, then LPS 18 hrs. Format: cell-based, human.
In another data set the test system is IL-1α. Briefly: IL-1α production by LPS-stimulated PBMCs (multiplex). Type of data set: cell-based, human. As to conditions: 1×10^−4M anti-oxidant 2 hrs, then LPS 18 hrs.
Description: as §8, §9, §5

Another data set has as its system IL-10. Briefly: IL-10 production by LPS-stimulated PBMCs (multiplex). Format: cell-based, human. As to conditions: 1×10^−4M anti-oxidant 2 hrs, then LPS 18 hrs.
Description: as §3, §4, §5

A further data set deals with IL-1Ra. Briefly: IL-1Ra production by LPS-stimulated PBMCs (multiplex). Type of data set: cell-based, human. As to conditions: 1×10^−4M anti-oxidant 2 hrs, then LPS 18 hrs.
Description: as §3, §4, §5

The subject of another data set is IκB-α mRNA. Briefly: RT-PCR of IκB-α mRNA in LPS-stimulated PBMCs (NF-κB activation). Type of data set: cell-based, human. As to the method:
as §6, §7

The mark [4] stands for this setting: HGF and HPDF, Example 4 metal concentrations.

Molecules are shown by their SMILES. Where two headings read alike, the source gives them in different places.

Description for G-CSF: Cell Culture—PBMCs were isolated from buffy coats derived from healthy donors (Sylvan N. Goldman Oklahoma Blood Institute, Oklahoma City, Okla., USA) by density gradient centrifugation (Ficoll-Paque plus; GE Healthcare, Piscataway, N.J., USA). Oleuropein (purity=80.17%) was purchased from Sabinsa Corporation (Payson, Utah, USA). […] Dimethyl sulfoxide (DMSO) (purity=99.90%) was purchased from EMD Millipore (Billerica, Mass., USA). Oleuropein, silymarin, ferulic acid, hesperetin, resveratrol and phloretin were provided as 0.1M stock solutions prepared in DMSO by Periosciences Ltd (Dallas, Tex., USA).
PBMCs were seeded at either 4×10^5 or 1.2×10^6 cells in 96- or 48-well tissue culture plates (BD Biosciences, Franklin Lakes, N.J., USA) respectively. PBMCs were pre-treated with single antioxidants at a concentration of 1×10^−4 M or combinations of antioxidants with a combined concentration of 1×10^−4 M for 2 hrs prior to stimulation. PBMCs were then stimulated for 16 hrs with purified LPS isolated from the bacterium Actinobacillus actinomycetemcomitans, strain Y4 (Aa Y4); a kind gift of Dr Kirkwood, Univ. S.C.) at a concentration of 1 μg/ml in the presence of antioxidants. Media were collected, spun at 1600 RPM and cell-free supernatants transferred to fresh tubes and stored at −20 C. Cell viability was assayed using CellTiter 96® AQueous One Solution Reagent (Promega, Madison, Wis., USA) following the manufacturers guidelines. […] After 2 hrs the absorbance at 490 nm was recorded using a 96-well plate reader.

Consider `[Cl][Cu][Cl]` [Cu, CuCl2], for which the “viable cells after incubation with metal (MTS)” value (“viable cells after incubation” below) in data set [1] is reported as “dose-dependent decrease of viable cells”. The “effect of metal on ROS” value in [2] and in data set [3] was “increased ROS” each time.
With `[Cl][Ni][Cl]` [Ni, NiCl2], the “viable cells after incubation” value in [1] (HGF cells, 30 and 60 minutes) was “dose-dependent decrease of viable cells”. The “effect of metal on ROS” value in data set [2] (setting [4]) is listed as “little effect on ROS”; in data set [3] (HGF cells), “increased ROS”.
`[Cl-].[Cl-].[Zn+2]` [Zn, ZnCl2]: the “viable cells after incubation” value in data set [1] (HGF cells, 30 and 60 minutes) was “dose-dependent decrease of viable cells”. Moreover, the “effect of metal on ROS” value is reported as “little effect on ROS” in [2] (setting [4]) and “increased ROS” in data set [3] (HGF cells).
For `COc1cc(/C=C/C(=O)O)ccc1O` [ferulic acid], in the data set on CCL5, the “production of CCL5” value is reported as “Apart from ferulic acid”. In the data set with TNF-α mRNA, the “reduction of TNF-α mRNA expression levels” value was “not”. In addition, in the data set on TNF-α, the TNF-α production result is recorded as “no observed effect”.
Consider `COc1ccc([C@@H]2CC(=O)c3c(O)cc(O)cc3O2)cc1O` [hesperetin], for which the “levels of IL-1β” value in the data set on IL-1β is reported as “decreased levels”. Also, the “production of IL-6” value in the data set on IL-6 is on record as “inhibited the production”. Also, the “IFN-γ induced by LPS stimulation” value in the data set on IFN-γ was “abolished”. Also, in the data set on G-CSF, the G-CSF production result is “inhibited”. In addition, in the data set with IL-1α, the “production of IL-1α” value is “inhibited the production”. Besides, in the data set with TNF-α, the TNF-α production result is “Significant inhibition”.
Regarding `O=C(CCc1ccc(O)cc1)c1c(O)cc(O)cc1O` [phloretin], the “production of IL-6” value in the data set with IL-6 was “inhibited the production”. Also, the “IFN-γ induced by LPS stimulation” value in the data set on IFN-γ is “abolished”. Moreover, the “production of IL-10” value in the data set on IL-10 is reported as “inhibited the production”. Further, the G-CSF production entry in the data set on G-CSF is “inhibited”. Moreover, the “production of IL-1α” value with IL-1α is reported as “inhibited the production”. The “production of IL-1Ra” value in the data set with IL-1Ra is recorded as “inhibited the production”. Moreover, the TNF-α production entry in the data set on TNF-α was “Significant inhibition”.
For the compound `Oc1ccc(C=Cc2cc(O)cc(O)c2)cc1` [resveratrol], in the data set on IL-1β, the “levels of IL-1β” value is reported as “decreased levels”. The “production of IL-6” value with IL-6 is “inhibited the production”. In addition, in the data set on IFN-γ, the “IFN-γ induced by LPS stimulation” value is on record as “abolished”. Also, the “production of IL-10” value in the data set on IL-10 is “inhibited the production”. For the same compound, in the data set with G-CSF, the G-CSF production entry was “inhibited”. Also, the “production of IL-1α” value in the data set on IL-1α is on record as “inhibited the production”. Also, the “production of IL-1Ra” value in the data set on IL-1Ra was “inhibited the production”. Further, the “reduction of IκB-α mRNA expression” value with IκB-α mRNA was around 50%. In the data set on TNF-α, the TNF-α production entry is reported as “Significant inhibition”.

(Values after patent US10918613B2, “Antioxidant compositions for treatment of inflammation or oxidative damage” (Perio Sciences, LLC, priority 2011, dated 2021).)
